Reference: PubChem BioAssay (NCI)
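Interpolation was linear, between the two tested concentrations surrounding the appropriate level; five concentrations were tested over 48 hours in 96-well plates. Here, GI50 denotes the concentration required for 50% inhibition of growth. The concentration for full growth arrest is given as TGI.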

Columns and labels:
Assay in all cases: NCI-60 cell line screen, 48 h
SR leukemia = system: SR leukemia
SK-MEL-2 melanoma = system: SK-MEL-2 melanoma
SK-OV-3 ovarian = system: SK-OV-3 ovarian
NCI-H460 lung = system: NCI-H460 lung
786-0 renal = system: 786-0 renal
IGROV1 ovarian = system: IGROV1 ovarian
NCI-H226 lung = system: NCI-H226 lung
OVCAR-4 ovarian = system: OVCAR-4 ovarian
LOX IMVI melanoma = system: LOX IMVI melanoma
CAKI-1 renal = system: CAKI-1 renal
SK-MEL-28 melanoma = system: SK-MEL-28 melanoma
BT-549 breast = system: BT-549 breast
HOP-62 NSCLC = system: HOP-62 NSCLC
UO-31 renal = system: UO-31 renal
OVCAR-8 ovarian = system: OVCAR-8 ovarian
SK-MEL-5 melanoma = system: SK-MEL-5 melanoma
RPMI-8226 leukemia = system: RPMI-8226 leukemia
SNB-75 CNS = system: SNB-75 CNS
RXF 393 renal = system: RXF 393 renal
COLO 205 colon = system: COLO 205 colon
UACC-62 melanoma = system: UACC-62 melanoma
CCRF-CEM leukemia = system: CCRF-CEM leukemia
A498 renal = system: A498 renal
M14 melanoma = system: M14 melanoma
DU-145 prostate = system: DU-145 prostate
SNB-19 CNS = system: SNB-19 CNS

## CCN(CC)CCN1C(=O)c2c(c(C)c3c(oc4cc(O)ccc43)c2C)C1=O
SR leukemia
  GI50: 1890 nM
  TGI: > 100000 nM
SK-MEL-2 melanoma
  GI50: 2350 nM
  TGI: 5270 nM
SK-OV-3 ovarian
  GI50: 1830 nM
  TGI: 3360 nM
NCI-H460 lung
  GI50: 1750 nM
  TGI: 3370 nM
786-0 renal
  GI50: 1620 nM
  TGI: 3200 nM
IGROV1 ovarian
  GI50: 1600 nM
  TGI: 3170 nM
NCI-H226 lung
  GI50: 2060 nM
  TGI: 4380 nM
OVCAR-4 ovarian
  GI50: 1690 nM
  TGI: 3370 nM
LOX IMVI melanoma
  GI50: 1700 nM
  TGI: 3180 nM
CAKI-1 renal
  GI50: 1660 nM
  TGI: 3060 nM
SK-MEL-28 melanoma
  GI50: 1580 nM
  TGI: 3030 nM
BT-549 breast
  GI50: 1670 nM
  TGI: 3190 nM
HOP-62 NSCLC
  GI50: 2060 nM
  TGI: 4840 nM
UO-31 renal
  GI50: 1480 nM
  TGI: 2810 nM
OVCAR-8 ovarian
  GI50: 2110 nM
  TGI: 5720 nM
SK-MEL-5 melanoma
  GI50: 1560 nM
  TGI: 2920 nM
RPMI-8226 leukemia
  GI50: 1770 nM
  TGI: 4760 nM
SNB-75 CNS
  GI50: 1440 nM
  TGI: 2800 nM
RXF 393 renal
  GI50: 1330 nM
  TGI: 2690 nM
COLO 205 colon
  GI50: 2180 nM
  TGI: 5770 nM
UACC-62 melanoma
  GI50: 1580 nM
  TGI: 2960 nM
CCRF-CEM leukemia
  GI50: 2230 nM
  TGI: 6250 nM
A498 renal
  GI50: 1690 nM
  TGI: 3120 nM
M14 melanoma
  GI50: 1810 nM
  TGI: 3630 nM
DU-145 prostate
  GI50: 1720 nM
  TGI: 3410 nM
SNB-19 CNS
  GI50: 1680 nM
  TGI: 3210 nM
